Test results published in ChEMBL document CHEMBL1134014, “Synthesis and biological evaluation of a sialyl Lewis X mimic with significantly improved E-selectin inhibition” (Bioorg Med Chem Lett, 2001).

Key:
[1] = target: T1, E-selectin (Homo sapiens) (UniProt P16581); experiment: Relative inhibitory concentration against Selectin E to that of sLex in a static cell free ligand binding assay
T1 sequence (whole entry): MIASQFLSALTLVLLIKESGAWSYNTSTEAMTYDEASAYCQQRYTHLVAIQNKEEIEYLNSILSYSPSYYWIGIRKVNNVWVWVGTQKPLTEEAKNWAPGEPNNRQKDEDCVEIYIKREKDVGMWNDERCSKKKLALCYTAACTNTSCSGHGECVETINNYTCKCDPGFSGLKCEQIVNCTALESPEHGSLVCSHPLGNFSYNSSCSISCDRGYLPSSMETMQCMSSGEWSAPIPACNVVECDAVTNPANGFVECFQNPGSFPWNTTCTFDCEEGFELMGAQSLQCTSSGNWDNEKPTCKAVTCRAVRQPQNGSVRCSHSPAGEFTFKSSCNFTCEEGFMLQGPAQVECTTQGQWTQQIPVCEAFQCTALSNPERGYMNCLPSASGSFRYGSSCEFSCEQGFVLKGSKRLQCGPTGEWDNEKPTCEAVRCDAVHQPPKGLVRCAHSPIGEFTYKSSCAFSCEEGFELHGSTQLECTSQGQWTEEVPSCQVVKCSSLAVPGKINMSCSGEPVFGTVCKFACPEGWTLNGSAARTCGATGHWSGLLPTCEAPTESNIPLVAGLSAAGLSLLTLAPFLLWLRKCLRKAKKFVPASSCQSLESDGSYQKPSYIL

[2] = target: T1, E-selectin (Homo sapiens); details: 50uM
Description: Percent inhibition of Selectin E by the compound at a dose of 50uM

E-selectin = target: T2, E-selectin (Homo sapiens, UniProt P16581); experiment: Inhibitory concentration against Selectin E in a static cell free ligand binding assay under equilibrium conditions.
T2 sequence (P16581 whole entry): T1 sequence (whole entry)

[3] = target: T1, E-selectin (Homo sapiens); details: 10uM
Description: Percent inhibition of Selectin E by the compound at a dose of 10uM

[4] = target: T1, E-selectin (Homo sapiens); details: 200uM
Description: Percent inhibition of Selectin E by the compound at a dose of 200uM

SMILES | Relative IC50 [1] | inhibition [2] | IC50 (E-selectin) | inhibition [3] | inhibition [4]
C[C@@H]1O[C@@H](O[C@@H]2CCCC[C@H]2O[C@@H]2O[C@@H](CO)[C@H](O)[C@H](OC(CC3CCCCC3)C(=O)O)[C@@H]2O)[C@@H](O)[C@@H](O)[C@@H]1O (single isomer, unassigned) | 0.115 |  |  |  | 
C[C@@H]1O[C@@H](O[C@@H]2[C@H](CO)OCC[C@H]2O[C@@H]2O[C@@H](CO)[C@H](O)[C@H](OC(CC3CCCCC3)C(=O)O)[C@@H]2O)[C@@H](O)[C@@H](O)[C@@H]1O (single isomer, unassigned) | 0.031 |  |  |  | 
COC(=O)CCCCCCCCO[C@@H]1O[C@@H](CO)[C@@H](O[C@@H]2O[C@@H](CO)[C@H](O)[C@H](O[C@]3(C(=O)O)C[C@@H](O)[C@@H](NC(C)=O)[C@H]([C@@H](O)[C@H](O)CO)O3)[C@@H]2O)[C@H](O[C@@H]2O[C@@H](C)[C@@H](O)[C@H](O)[C@@H]2O)[C@@H]1NC(C)=O | 1 |  |  |  | 

More lines, now with the values ahead:

Relative IC50 [1] | inhibition [2] | IC50 (E-selectin) | inhibition [3] | inhibition [4] | SMILES
0.164 |  |  |  |  | COC(=O)CCCCCCCCOC1O[C@@H](O)[C@@H](O[C@@H]2O[C@@H](CO)[C@H](O)[C@H](O[C@]3(C(=O)O)C[C@@H](O)[C@@H](NC(C)=O)[C@H]([C@@H](O)[C@H](O)CO)O3)[C@@H]2O)[C@H](O[C@@H]2O[C@@H](C)[C@@H](O)[C@H](O)[C@@H]2O)[C@@H]1NC(=O)c1ccc(OC)c(OC)c1 (some centres undefined)
0.03 | 93% | 1500 µM | 54% | 97% | COC(=O)CCCCCCCCO[C@@H]1O[C@@H](CO)[C@@H](O[C@@H]2O[C@@H](CO)[C@H](O)[C@H](O[C@@H](CC3CCCCC3)C(=O)O)[C@@H]2O)[C@H](O[C@@H]2O[C@@H](C)[C@@H](O)[C@H](O)[C@@H]2O)[C@@H]1NC(=O)c1ccc(OC)c(OC)c1
